Test in all cases: KinomeScan profiling
Holding throughout (assay type): binding

One experiment deals with DYRK1A (Homo sapiens, UniProt Q13627). The following applies: read-out: % control. The gist of the method:
(§1)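 The panel spans 468 kinases, and each inventive compound was applied at 1 μM from DMSO. Lower % control means stronger binding; the activity cut-off is set at less than 35%.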

The next experiment addresses T1, FLT3 (Homo sapiens, UniProt P36888).
T1 sequence (P36888 27-993): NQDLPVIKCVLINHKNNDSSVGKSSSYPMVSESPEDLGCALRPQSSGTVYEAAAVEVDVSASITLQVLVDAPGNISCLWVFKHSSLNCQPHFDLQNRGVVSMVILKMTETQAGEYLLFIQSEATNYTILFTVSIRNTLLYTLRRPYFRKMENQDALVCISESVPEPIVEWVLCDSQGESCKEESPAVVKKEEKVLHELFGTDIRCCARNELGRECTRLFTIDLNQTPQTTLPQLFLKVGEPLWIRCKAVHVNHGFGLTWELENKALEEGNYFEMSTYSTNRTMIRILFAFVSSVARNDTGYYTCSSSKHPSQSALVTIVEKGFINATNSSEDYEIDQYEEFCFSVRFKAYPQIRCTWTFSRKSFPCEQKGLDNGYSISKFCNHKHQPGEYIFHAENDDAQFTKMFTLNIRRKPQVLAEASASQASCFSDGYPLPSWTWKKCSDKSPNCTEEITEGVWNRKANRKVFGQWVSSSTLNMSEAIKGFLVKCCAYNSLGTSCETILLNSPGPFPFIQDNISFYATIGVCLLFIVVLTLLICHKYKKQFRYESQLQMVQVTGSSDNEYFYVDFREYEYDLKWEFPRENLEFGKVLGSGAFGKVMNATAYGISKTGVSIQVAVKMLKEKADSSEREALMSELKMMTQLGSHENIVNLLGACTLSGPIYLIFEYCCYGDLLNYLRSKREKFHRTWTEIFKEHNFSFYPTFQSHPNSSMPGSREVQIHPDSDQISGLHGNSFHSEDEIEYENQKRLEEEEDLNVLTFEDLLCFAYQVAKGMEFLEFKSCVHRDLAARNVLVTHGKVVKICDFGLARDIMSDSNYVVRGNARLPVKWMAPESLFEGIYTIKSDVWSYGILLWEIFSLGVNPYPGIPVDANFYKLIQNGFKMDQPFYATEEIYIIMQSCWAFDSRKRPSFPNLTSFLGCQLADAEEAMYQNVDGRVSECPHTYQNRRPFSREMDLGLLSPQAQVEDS
The following applies: FLT3, 1 μM; read-out: % control. The method in brief: as §1

The target of the next experiment is T2, MUSK (Homo sapiens, UniProt O15146).
T2 sequence (O15146 24-869): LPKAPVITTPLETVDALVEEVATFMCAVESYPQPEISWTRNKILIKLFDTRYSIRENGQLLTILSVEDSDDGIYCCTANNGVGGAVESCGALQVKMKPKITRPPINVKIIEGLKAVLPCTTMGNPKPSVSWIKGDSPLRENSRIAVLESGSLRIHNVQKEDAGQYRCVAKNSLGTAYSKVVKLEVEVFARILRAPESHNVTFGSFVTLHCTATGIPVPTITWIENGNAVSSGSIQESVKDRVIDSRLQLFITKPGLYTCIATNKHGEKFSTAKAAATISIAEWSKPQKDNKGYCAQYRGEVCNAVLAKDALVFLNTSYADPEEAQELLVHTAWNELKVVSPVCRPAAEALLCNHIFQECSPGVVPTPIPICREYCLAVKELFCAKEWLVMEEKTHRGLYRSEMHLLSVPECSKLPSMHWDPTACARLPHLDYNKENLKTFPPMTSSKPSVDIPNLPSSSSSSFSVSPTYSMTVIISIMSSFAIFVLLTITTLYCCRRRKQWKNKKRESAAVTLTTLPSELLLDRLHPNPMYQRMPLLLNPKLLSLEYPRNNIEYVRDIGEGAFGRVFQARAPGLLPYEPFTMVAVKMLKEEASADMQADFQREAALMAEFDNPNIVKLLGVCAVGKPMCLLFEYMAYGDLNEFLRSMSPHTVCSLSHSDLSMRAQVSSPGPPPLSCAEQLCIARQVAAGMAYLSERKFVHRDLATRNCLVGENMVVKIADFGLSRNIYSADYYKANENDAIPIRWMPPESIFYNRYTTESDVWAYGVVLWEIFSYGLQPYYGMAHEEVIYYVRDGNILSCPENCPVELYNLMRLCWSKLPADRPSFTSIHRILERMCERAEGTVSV
To be noted: read-out: % control. The method in brief: as §1

The next experiment has as its target T3, SRPK3 (Homo sapiens, UniProt Q9UPE1).
T3 construct: purchased KinomeScan® (panel service)
To be noted: SRPK3, 1 μM; read-out: % control. The method in brief:
as §1

T3 sequence (Q9UPE1 whole entry): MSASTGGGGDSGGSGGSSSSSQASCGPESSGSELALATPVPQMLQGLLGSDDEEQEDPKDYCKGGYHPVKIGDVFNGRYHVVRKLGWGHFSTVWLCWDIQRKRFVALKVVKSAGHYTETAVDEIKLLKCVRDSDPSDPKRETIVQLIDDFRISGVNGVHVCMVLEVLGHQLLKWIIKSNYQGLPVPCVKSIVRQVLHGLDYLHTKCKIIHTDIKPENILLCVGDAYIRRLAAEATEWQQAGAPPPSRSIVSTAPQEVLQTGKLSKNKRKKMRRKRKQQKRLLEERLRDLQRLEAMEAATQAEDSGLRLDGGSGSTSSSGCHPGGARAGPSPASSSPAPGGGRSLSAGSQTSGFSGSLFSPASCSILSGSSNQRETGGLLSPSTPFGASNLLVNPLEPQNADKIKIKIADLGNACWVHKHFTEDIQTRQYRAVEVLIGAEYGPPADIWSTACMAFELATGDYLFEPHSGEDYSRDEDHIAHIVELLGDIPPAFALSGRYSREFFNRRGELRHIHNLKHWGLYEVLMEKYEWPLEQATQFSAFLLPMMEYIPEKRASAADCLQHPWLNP

`CNc1c(-c2ccc(C(=O)N3CCC(N4CCOCC4)CC3)cc2)cnc2[nH]cc(Cl)c12` [Compound 96, (4-(3-chloro-4-(methylamino)-1H-pyrrolo[2,3-b]pyridin-5-yl)phenyl)(4-morpholinopiperidin-1-yl)methanone]: the remaining binding at 1 µM at DYRK1A worked out at 69%; at FLT3 it was 6.7%; on MUSK it was 100%; at SRPK3 it was 17%.
The like results for `O=C(c1ccc(-c2cnc3[nH]cc(Cl)c3c2NC2CCCC2)cc1)N1CCC(N2CCOCC2)CC1` [Compound 101, (4-(3-chloro-4-(cyclopentylamino)-1H-pyrrolo[2,3-b]pyridin-5-yl)phenyl)(4-morpholinopiperidin-1-yl)methanone] were, in that order, 4%, 4.9%, 67% and 9.9%.
On the same counts, the results for `CNc1c(-c2cnn([C@H]3CCN(C(C)=O)C[C@@H]3F)c2)cnc2[nH]cc(Cl)c12` [Compound 77, 1-((3S,4S)-4-(4-(3-chloro-4-(methylamino)-1H-pyrrolo[2,3-b]pyridin-5-yl)-1H-pyrazol-1-yl)-3-fluoropiperidin-1-yl)ethan-1-one] are 58%, 3.3%, 100% and 16%.

(Values after patent publication US12275731B2, “Azaindole inhibitors of wild-type and mutant forms of LRRK2” (DANA-FARBER CANCER INSTITUTE, INC., priority 2018, dated 2025).)
